For the assay, the target named is human TRPA1 (Homo sapiens (Human), UniProt O75762). As to the kind of experiment: hTRPA1 CHO Ca2+ AUC EVO (IC50); FLIPR Tetra block of cinnamaldehyde induced calcium influx. In kind it is cell-based. The following applies: CHO cells expressing TRPA1, 75 uM cinnamaldehyde agonist. The procedure:
IC50 values ([…]) of compounds on the human and rat TRPA1 channels were determined using a FLIPR Tetra instrument. CHO cells expressing TRPA1 were plated into 384-well plates, incubated overnight at 37 C, and loaded with BD calcium indicator dye for 1 hr at 37° C. followed by 15 minutes. at room temperature. The assay buffer was Hank's Balanced Salt Solution (HBSS) containing 20 mM HEPES (pH readjusted to 7.4) along with 0.02% BSA.
Following dye load and plate cool down, compounds were added to the cells using FLIPR Tetra. Plates were then incubated with compounds for 20 minutes at room temperature prior to adding agonist. Following this incubation, ˜EC80 concentration of cinnamaldehyde (75 uM for human TRPA1 and 45 uM for rat TRPA1) was added to active the channels and block of cinnamaldehyde induced calcium influx was measured.
IC50 values were fit with a standard Hill function, keeping the Hill coefficient (n) fixed to 1.5. Fixing the Hill coefficient will generally reduce variability of the IC50 determination. The IC50 values were individually examined to make sure the MIN and MAX points were set correctly prior to validation of the results.

SMILES strings stand for the structures.

human TRPA1, sequence (O75762 whole entry): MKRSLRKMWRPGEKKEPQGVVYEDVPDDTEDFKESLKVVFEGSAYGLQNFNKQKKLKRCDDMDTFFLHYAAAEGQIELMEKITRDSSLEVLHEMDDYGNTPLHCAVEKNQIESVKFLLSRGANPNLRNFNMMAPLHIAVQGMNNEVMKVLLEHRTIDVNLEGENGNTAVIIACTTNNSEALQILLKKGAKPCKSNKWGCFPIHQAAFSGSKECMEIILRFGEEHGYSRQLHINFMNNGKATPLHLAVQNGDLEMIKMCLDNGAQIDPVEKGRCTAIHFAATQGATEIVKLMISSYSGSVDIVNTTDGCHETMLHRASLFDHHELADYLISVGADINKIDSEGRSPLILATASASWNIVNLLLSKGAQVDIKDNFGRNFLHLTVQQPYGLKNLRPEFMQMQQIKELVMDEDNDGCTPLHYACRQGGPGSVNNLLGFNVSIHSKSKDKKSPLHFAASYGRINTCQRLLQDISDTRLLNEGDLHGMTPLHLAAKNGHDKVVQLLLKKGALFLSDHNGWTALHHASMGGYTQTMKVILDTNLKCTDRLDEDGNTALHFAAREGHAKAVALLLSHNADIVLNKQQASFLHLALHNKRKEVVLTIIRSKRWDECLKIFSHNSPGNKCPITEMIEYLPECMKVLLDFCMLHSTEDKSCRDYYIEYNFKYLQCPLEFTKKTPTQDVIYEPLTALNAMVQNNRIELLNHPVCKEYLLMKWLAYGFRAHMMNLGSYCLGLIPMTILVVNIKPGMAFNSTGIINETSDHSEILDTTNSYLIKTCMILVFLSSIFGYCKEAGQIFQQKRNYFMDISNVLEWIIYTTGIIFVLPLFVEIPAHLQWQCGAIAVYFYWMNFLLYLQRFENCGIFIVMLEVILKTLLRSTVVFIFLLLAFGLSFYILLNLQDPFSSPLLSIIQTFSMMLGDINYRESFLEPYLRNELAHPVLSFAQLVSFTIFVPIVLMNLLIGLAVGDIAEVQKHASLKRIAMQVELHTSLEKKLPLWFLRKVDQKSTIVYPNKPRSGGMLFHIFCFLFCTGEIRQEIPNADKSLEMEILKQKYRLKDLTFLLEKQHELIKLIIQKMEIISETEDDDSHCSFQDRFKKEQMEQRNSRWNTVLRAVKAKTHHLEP

In general, IC50 refers to the midpoint of a concentration-inhibition curve. `O=C(NCc1cn(-c2ccc(C(F)(F)F)cc2)nc1C(F)F)[C@@H]1CC[C@@H]1S(=O)(=O)c1ccc(F)cc1` [Example 17, (1S,2S)-N-((3-(difluoromethyl)-1-(4-(trifluoromethyl)phenyl)-1H-pyrazol-4-yl)methyl)-2-(4-fluorophenylsulfonyl) cyclobutanecarboxamide]: the IC50 (Table 3) is 24.2 nM. Regarding `O=C(NCc1cn(-c2ccc(C(F)(F)F)cc2)nc1Cl)C1CCCC1S(=O)(=O)c1ccc(F)cc1` (single isomer, unassigned; enantiomer 2) [Example 42, N-((3-chloro-1-(4-(trifluoromethyl)phenyl)-1H-pyrazol-4-yl)methyl)-2-(4-fluorophenylsulfonyl) cyclopentanecarboxamide (Enantiomer 2)], the IC50 worked out at 45.5 nM (Table 1) and 45.5 nM (Table 3). With `O=C(NCc1cn(-c2ccc(C(F)(F)F)cc2)nc1Cl)C1CCC1S(=O)(=O)c1ccc(F)cc1` (single isomer, unassigned; enantiomer 3) [Example 30, N-((3-chloro-1-(4-(trifluoromethyl)phenyl)-1H-pyrazol-4-yl)methyl)-2-(4-fluorophenylsulfonyl) cyclobutanecarboxamide (Enantiomer 3)], the IC50 (Table 3) came to 56.7 nM. Take `COc1nn(-c2ccc(C(F)(F)F)cc2)cc1CC(=O)N[C@@H]1CC[C@@H]1S(=O)(=O)c1ccc(F)cc1` [Example 14, N-((1R,2S)-2-((4-fluorophenyl)sulfonyl)cyclobutyl)-2-(3-methoxy-1-(4-(trifluoromethyl)phenyl)-1H-pyrazol-4-yl)acetamide]: the IC50 was 5.2 nM (Table 1) and 5.2 nM (Table 3).

On to `O=C(NCc1cn(-c2cnc(C(F)(F)F)nc2)nc1C(F)F)[C@@H]1CC[C@@H]1S(=O)(=O)c1ccc(F)cc1` [Example 16, (1S,2S)-N-((3-(difluoromethyl)-1-(2-(trifluoromethyl)pyrimidin-5-yl)-1H-pyrazol-4-yl)methyl)-2-(4-fluorophenylsulfonyl) cyclobutanecarboxamide], for which the IC50 (Table 3) is 162 nM. On to `O=C(NCc1cc(-c2ccc(C(F)(F)F)nc2)ncc1Cl)[C@@H]1CC[C@@H]1S(=O)(=O)c1ccc(F)cc1` [Example 15], for which the IC50 (Table 3) was 140 nM. In the case of `O=C(NCc1cn(-c2ccc(C(F)(F)F)cc2)nc1C(F)F)C1CCC1S(=O)(=O)c1ccc(F)cc1` (single isomer, unassigned; enantiomer 2) [Example 18, N-((3-(difluoromethyl)-1-(4-(trifluoromethyl)phenyl)-1H-pyrazol-4-yl)methyl)-2-(4-fluorophenylsulfonyl) cyclobutanecarboxamide (Enantiomer 2)], the IC50 (Table 3) was determined as 96 nM. Turning to `CC1(C(=O)NCc2cn(-c3ccc(C(F)(F)F)nc3)nc2Cl)CCCC1S(=O)(=O)c1ccc(F)cc1` (single isomer, unassigned; enantiomer 1) [Example 31, N-((3-chloro-1-(6-(trifluoromethyl)pyridin-3-yl)-1H-pyrazol-4-yl)methyl)-2-(4-fluorophenylsulfonyl)-1-methylcyclopentanecarboxamide (Enantiomer 1)], the IC50 is 39.2 nM (Table 1) and 39.2 nM (Table 3).

With `COc1nn(-c2ccc(C(F)(F)F)nc2)cc1CNC(=O)C1CCCC1S(=O)(=O)c1ccc(F)cc1` (single isomer, unassigned; enantiomer 2) [Example 39, 2-(4-fluorophenylsulfonyl)-N-((3-methoxy-1-(6-(trifluoromethyl)pyridin-3-yl)-1H-pyrazol-4-yl)methyl) cyclopentanecarboxamide (Enantiomer 2)], the IC50 (Table 3) was 218 nM. As for `O=C(NCc1cn(-c2ccc(C(F)(F)F)nc2)nc1C(F)(F)F)C1CCC1S(=O)(=O)c1ccc(F)cc1` (single isomer, unassigned; enantiomer 3) [Example 26, 2-(4-fluorophenylsulfonyl)-N-((3-(trifluoromethyl)-1-(6-(trifluoromethyl)pyridin-3-yl)-1H-pyrazol-4-yl)methyl) cyclobutanecarboxamide (Enantiomer 3)], under “Table 3”, the IC50 was found to be 90.2 nM. Still for that read-out and setting: the figure for `O=C(NCc1ccc(F)c(-c2cnc(C(F)(F)F)nc2)c1)[C@@H]1CC[C@@H]1S(=O)(=O)c1ccc(F)cc1` [Example 19, (1S,2S)-2-(4-fluorophenyl)sulfonyl-N-[[4-fluoro-3-[2-(trifluoromethyl)pyrimidin-5-yl]phenyl]methyl] cyclobutanecarboxamide] is 159 nM. Turning to `O=C(Cc1cn(-c2cnc(C(F)(F)F)nc2)nc1C(F)F)N[C@@H]1CC[C@@H]1S(=O)(=O)c1ccc(F)cc1` [Example 9, 2-(3-(difluoromethyl)-1-(2-(trifluoromethyl)pyrimidin-5-yl)-1H-pyrazol-4-yl)-N-((1R,2S)-2-(4-fluorophenylsulfonyl)cyclobutyl)acetamide], the IC50 reads like this: (Table 1) 35.2 nM; (Table 3) 35.2 nM. Consider `O=C(Cc1cn(-c2cnc(C(F)(F)F)nc2)nc1C(F)(F)F)N[C@@H]1CC[C@@H]1[S+]([O-])c1ccc(F)cc1` (stereo partly drawn) [Example 2, N-((1R,2S)-2-(4-fluorophenylsulfinyl)cyclobutyl)-2-(3-(trifluoromethyl)-1-(2-(trifluoromethyl)pyrimidin-5-yl)-1H-pyrazol-4-yl)acetamide], for which the IC50 (Table 3) was determined as 500 nM.

As for `COc1nn(-c2ccc(C(F)(F)F)nc2)cc1CNC(=O)[C@@H]1CCC[C@@H]1S(=O)(=O)c1ccc(F)cc1` [Example 40, (1S,2S)-2-(4-fluorophenylsulfonyl)-N-((3-methoxy-1-(6-(trifluoromethyl)pyridin-3-yl)-1H-pyrazol-4-yl)methyl) cyclopentanecarboxamide], the IC50 (Table 3) was determined as 159 nM. As for `O=C(NCc1cn(-c2ccc(C(F)(F)F)nc2)nc1C(F)(F)F)[C@@H]1CCC[C@@H]1S(=O)(=O)c1ccc(F)cc1` [Example 4, (1S,2S)-2-[(4-fluorobenzene)sulfonyl]-N-[[3-(trifluoromethyl)-1-[6-(trifluoromethyl)pyridin-3-yl]-1H-pyrazol-4-yl]methyl]cyclopentane-1-carboxamide], where the note is “Table 3”, the IC50 turned out to be 21.8 nM. Turning to `COc1nn(-c2ccc(C(F)(F)F)nc2)cc1CNC(=O)C1(C)CCCC1S(=O)(=O)c1ccc(F)cc1` (single isomer, unassigned; enantiomer 3) [Example 36, 2-(4-fluorophenylsulfonyl)-N-((3-methoxy-1-(6-(trifluoromethyl)pyridin-3-yl)-1H-pyrazol-4-yl)methyl)-1-methylcyclopentanecarboxamide (Enantiomer 3)], the IC50 (Table 3) turned out to be 62.2 nM.

`O=C(NCc1cn(-c2ccc(C(F)(F)F)nc2)nc1C(F)(F)F)C1CCC1S(=O)(=O)c1ccc(F)cc1` (single isomer, unassigned; enantiomer 2) [Example 25, 2-(4-fluorophenylsulfonyl)-N-((3-(trifluoromethyl)-1-(6-(trifluoromethyl)pyridin-3-yl)-1H-pyrazol-4-yl)methyl) cyclobutanecarboxamide (Enantiomer 2)]: the IC50 (Table 3) turned out to be 192 nM. Turning to `O=C(NCc1cn(-c2ccc(C(F)(F)F)cc2)nc1Cl)[C@@H]1CCC[C@@H]1S(=O)(=O)c1ccc(F)cc1` [Example 43, (1S,2S)-N-((3-chloro-1-(4-(trifluoromethyl)phenyl)-1H-pyrazol-4-yl)methyl)-2-(4-fluorophenylsulfonyl) cyclopentanecarboxamide], the IC50 runs as follows: (Table 1) 38.9 nM; (Table 3) 38.9 nM.

Take `O=C(Cc1cn(-c2cnc(C(F)(F)F)nc2)nc1C1CC1)N[C@@H]1CC[C@@H]1S(=O)(=O)c1ccc(F)cc1` [Example 6, 2-(3-cyclopropyl-1-(2-(trifluoromethyl)pyrimidin-5-yl)-1H-pyrazol-4-yl)-N-((1R,2S)-2-(4-fluorophenylsulfonyl)cyclobutyl)acetamide]: the IC50 was 46.9 nM (Table 1) and 46.9 nM (Table 3).
